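Tested at 5 concentrations; 48 h exposure; 96-well plates; endpoints linearly interpolated, else capped at highest concentration. Definition used: TGI = concentration required for complete inhibition of growth.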
What was measured:
Test in all cases: NCI tumour cell line growth inhibition, 48 h
[1] = system: 786-0 renal
[2] = system: A498 renal
[3] = system: A549 NSCLC
[4] = system: ACHN renal
[5] = system: BT-549 breast
[6] = system: CAKI-1 renal
[7] = system: CCRF-CEM leukemia
[8] = system: COLO 205 colon
[9] = system: DLD-1 colon
[10] = system: DMS 114 small cell lung
[11] = system: DMS 273 small cell lung
[12] = system: DU-145 prostate
[13] = system: EKVX NSCLC
[14] = system: HCC-2998 colon
[15] = system: HCT-116 colon
[16] = system: HCT-15 colon
[17] = system: HL-60(TB) leukemia
[18] = system: HOP-18 NSCLC
[19] = system: HOP-62 NSCLC
[20] = system: HOP-92 NSCLC
[21] = system: HS 578T breast
[22] = system: HT29 colon
[23] = system: IGROV1 ovarian
[24] = system: K-562 leukemia
[25] = system: KM12 colon
[26] = system: KM20L2 colon
[27] = system: LOX IMVI melanoma
[28] = system: LXFL 529 NSCLC
[29] = system: M14 melanoma
[30] = system: M19-MEL melanoma
[31] = system: MALME-3M melanoma
[32] = system: MCF7 breast
[33] = system: MDA-MB-231 breast
[34] = system: MDA-MB-435
[35] = system: MOLT-4 leukemia
[36] = system: NCI-H226 lung
[37] = system: NCI-H23 lung
[38] = system: NCI-H460 lung
[39] = system: NCI-H522 lung
[40] = system: NCI/ADR-RES ovarian
[41] = system: OVCAR-3 ovarian
[42] = system: OVCAR-4 ovarian
[43] = system: OVCAR-5 ovarian
[44] = system: OVCAR-8 ovarian
[45] = system: P388 leukemia
[46] = system: P388/ADR leukemia
[47] = system: PC-3 prostate
[48] = system: RPMI-8226 leukemia
[49] = system: RXF 393 renal
[50] = system: SF-268 CNS
[51] = system: SF-295 CNS
[52] = system: SF-539 CNS
[53] = system: SK-MEL-2 melanoma
[54] = system: SK-MEL-28 melanoma
[55] = system: SK-MEL-5 melanoma
[56] = system: SK-OV-3 ovarian
[57] = system: SN12C renal
[58] = system: SN12K1 renal
[59] = system: SNB-19 CNS
[60] = system: SNB-75 CNS
[61] = system: SNB-78 CNS
[62] = system: SR leukemia
[63] = system: SW-620 colon
[64] = system: T-47D breast
[65] = system: TK-10 renal
[66] = system: U251 CNS
[67] = system: UACC-257 melanoma
[68] = system: UACC-62 melanoma
[69] = system: UO-31 renal
[70] = system: XF 498 CNS

**Q.** Which TGI [1] does the source give for CC(C)NC(=O)OCc1c(COC(=O)NC(C)C)c(-c2ccc(Cl)c(Cl)c2)n2c1CCC2 here?
**A.** 44.5 µM

**Q.** What about the TGI [2] of the same compound?
**A.** 43.3 µM

**Q.** What about the TGI [3] of the same compound?
**A.** 29.6 µM

**Q.** And the TGI [4]?
**A.** 43.6 µM

**Q.** And the TGI [5]?
**A.** > 100 µM

**Q.** What about the TGI [6] of the same compound?
**A.** 42.2 µM

**Q.** What about the TGI [7] of the same compound?
**A.** 44.6 µM

**Q.** What about the TGI [8] of the same compound?
**A.** 71.3 µM

**Q.** And the TGI [9]?
**A.** > 72.3 µM

**Q.** And the TGI [10]?
**A.** 57.4 µM

**Q.** And the TGI [11]?
**A.** > 67 µM

**Q.** And the TGI [12]?
**A.** > 100 µM

**Q.** And the TGI [13]?
**A.** 69.6 µM

**Q.** And the TGI [14]?
**A.** 61.2 µM

**Q.** And the TGI [15]?
**A.** 73 µM

**Q.** And the TGI [16]?
**A.** 71.3 µM

**Q.** And the TGI [17]?
**A.** 48.2 µM

**Q.** And the TGI [18]?
**A.** > 83.9 µM

**Q.** What about the TGI [19] of the same compound?
**A.** 62 µM

**Q.** And the TGI [20]?
**A.** 52.2 µM

**Q.** What about the TGI [21] of the same compound?
**A.** > 100 µM

**Q.** And the TGI [22]?
**A.** 64.1 µM

**Q.** And the TGI [23]?
**A.** 70.6 µM

**Q.** What about the TGI [24] of the same compound?
**A.** 77.1 µM

**Q.** And the TGI [25]?
**A.** 73.1 µM

**Q.** What about the TGI [26] of the same compound?
**A.** 58.7 µM

**Q.** What about the TGI [27] of the same compound?
**A.** 66.6 µM

**Q.** And the TGI [28]?
**A.** 16.3 µM

**Q.** What about the TGI [29] of the same compound?
**A.** 55.5 µM

**Q.** And the TGI [30]?
**A.** 61.3 µM

**Q.** And the TGI [31]?
**A.** 70.8 µM

**Q.** What about the TGI [32] of the same compound?
**A.** > 100 µM

**Q.** And the TGI [33]?
**A.** > 100 µM

**Q.** What about the TGI [34] of the same compound?
**A.** > 100 µM

**Q.** What about the TGI [35] of the same compound?
**A.** 34.8 µM

**Q.** What about the TGI [36] of the same compound?
**A.** 47.4 µM

**Q.** What about the TGI [37] of the same compound?
**A.** 60.9 µM

**Q.** What about the TGI [38] of the same compound?
**A.** 68.3 µM

**Q.** And the TGI [39]?
**A.** > 74.4 µM

**Q.** And the TGI [40]?
**A.** > 100 µM

**Q.** And the TGI [41]?
**A.** 69.9 µM

**Q.** And the TGI [42]?
**A.** > 78.8 µM

**Q.** What about the TGI [43] of the same compound?
**A.** 64.1 µM

**Q.** And the TGI [44]?
**A.** 73.4 µM

**Q.** And the TGI [45]?
**A.** > 100 µM

**Q.** And the TGI [46]?
**A.** > 100 µM

**Q.** What about the TGI [47] of the same compound?
**A.** > 100 µM

**Q.** And the TGI [48]?
**A.** 73.3 µM

**Q.** What about the TGI [49] of the same compound?
**A.** 46.9 µM

**Q.** And the TGI [50]?
**A.** 67.6 µM

**Q.** What about the TGI [51] of the same compound?
**A.** 72.8 µM

**Q.** And the TGI [52]?
**A.** 65.4 µM

**Q.** What about the TGI [53] of the same compound?
**A.** > 65.1 µM

**Q.** And the TGI [54]?
**A.** 75.1 µM

**Q.** What about the TGI [55] of the same compound?
**A.** > 81.7 µM

**Q.** What about the TGI [56] of the same compound?
**A.** > 76.8 µM

**Q.** And the TGI [57]?
**A.** 68.2 µM

**Q.** What about the TGI [58] of the same compound?
**A.** > 100 µM

**Q.** What about the TGI [59] of the same compound?
**A.** 81 µM

**Q.** What about the TGI [60] of the same compound?
**A.** 61.7 µM

**Q.** What about the TGI [61] of the same compound?
**A.** 41.9 µM

**Q.** What about the TGI [62] of the same compound?
**A.** 36.3 µM

**Q.** What about the TGI [63] of the same compound?
**A.** 71.7 µM

**Q.** What about the TGI [64] of the same compound?
**A.** > 56.2 µM

**Q.** What about the TGI [65] of the same compound?
**A.** 88.2 µM

**Q.** And the TGI [66]?
**A.** 71.8 µM

**Q.** And the TGI [67]?
**A.** 65.9 µM

**Q.** What about the TGI [68] of the same compound?
**A.** 53.9 µM

**Q.** What about the TGI [69] of the same compound?
**A.** 63.5 µM

**Q.** What about the TGI [70] of the same compound?
**A.** > 62.1 µM

Source: PubChem BioAssay (NCI)
